Source: ChEMBL document CHEMBL1201862, “PubChem BioAssay data set” (2004)
Active and inactive are the calls of the source.

Key:
[1] = Luminescence Cell-Based Dose Confirmation HTS to Identify Activators of 5'UTR Stem-Loop Driven Alpha-Synuclein mRNA Translation in H4 Neuroglioblastoma Cells. [Related pubchem assays: 1829 (Project Summary), 1814 (Primary HTS)]; type: functional
[2] = Luminescence Cell-Based Dose Response HTS to Identify Activators of Luciferase Translation or Activity in H4 […] Cells. [Related pubchem assays: 1829 (Project Summary), 1814 (Primary HTS)]; type: functional
H4 = assay: Luminescence Cell-Based Dose Response HTS to Identify Activators of 5'UTR Stem-Loop Driven Prion Protein mRNA Translation in H4 Neuroglioblastoma Cells. [Related pubchem assays: 1829 (Project Summary), 1814 (Primary HTS)]; type: functional; conditions: Homo sapiens
[3] = inhibitors of SNCA 5'UTR-driven reporter translation, confirmation, H4 neuroglioma cells, luminescence (AID 1988); type: functional, cell-based
[4] = Luminescence Cell-Based Dose Response HTS to Identify Inhibitors of 5'UTR Stem-Loop Driven Prion Protein mRNA Translation in H4 Neuroglioblastoma Cells. [Related pubchem assays: 1827 (Project Summary), 1813 (Primary HTS)]; type: functional
[5] = inhibitors of firefly luciferase expression or activity, dose response, H4 neuroglioma cells, luminescence (AID 1990); type: functional, cell-based
Cytochrome P450 2C9 = Cytochrome P450 2C9 (Homo sapiens, UniProt P11712)
Cytochrome P450 2C9, sequence (P11712 whole entry): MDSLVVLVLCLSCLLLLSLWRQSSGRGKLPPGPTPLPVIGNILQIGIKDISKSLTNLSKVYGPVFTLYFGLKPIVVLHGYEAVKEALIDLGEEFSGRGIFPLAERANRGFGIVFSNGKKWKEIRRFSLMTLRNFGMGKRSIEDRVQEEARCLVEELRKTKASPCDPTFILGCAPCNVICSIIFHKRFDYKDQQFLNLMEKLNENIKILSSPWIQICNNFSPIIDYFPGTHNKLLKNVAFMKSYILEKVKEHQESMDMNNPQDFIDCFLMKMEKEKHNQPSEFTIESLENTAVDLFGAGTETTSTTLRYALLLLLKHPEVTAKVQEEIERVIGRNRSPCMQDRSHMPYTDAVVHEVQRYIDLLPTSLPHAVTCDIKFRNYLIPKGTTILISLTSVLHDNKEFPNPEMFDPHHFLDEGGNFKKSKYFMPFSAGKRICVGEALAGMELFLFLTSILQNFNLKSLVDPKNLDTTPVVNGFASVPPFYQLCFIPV

Cytochrome P450 1A2 = molecular target: T1, Cytochrome P450 1A2 (Homo sapiens, UniProt P05177);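 also: PubChem cytochrome P450 panel assay, CYP1A2 panel member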
T1 sequence (P05177 whole entry): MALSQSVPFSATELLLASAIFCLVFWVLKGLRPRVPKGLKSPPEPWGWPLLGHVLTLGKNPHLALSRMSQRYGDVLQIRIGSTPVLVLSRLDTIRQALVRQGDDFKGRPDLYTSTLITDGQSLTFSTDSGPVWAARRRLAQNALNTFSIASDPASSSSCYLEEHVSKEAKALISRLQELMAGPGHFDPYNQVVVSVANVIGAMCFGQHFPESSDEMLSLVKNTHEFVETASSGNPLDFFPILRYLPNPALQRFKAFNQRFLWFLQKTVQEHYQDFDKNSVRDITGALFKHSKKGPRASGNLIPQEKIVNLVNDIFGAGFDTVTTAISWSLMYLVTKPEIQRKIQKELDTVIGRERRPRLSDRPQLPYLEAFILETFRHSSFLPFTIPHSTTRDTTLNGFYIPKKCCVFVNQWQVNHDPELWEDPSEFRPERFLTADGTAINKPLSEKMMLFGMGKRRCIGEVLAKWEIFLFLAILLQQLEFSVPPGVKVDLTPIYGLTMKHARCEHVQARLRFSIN

Cytochrome P450 2C19 = Cytochrome P450 2C19 (Homo sapiens, UniProt P33261); assay: Cytochrome panel assay with activity outcomes. Panel member name: p450-cyp2c19 Compounds with AC50 equal or less than 10 uM are considered active; type: functional; conditions: read-out: AC50
Cytochrome P450 2C19, sequence (P33261 whole entry): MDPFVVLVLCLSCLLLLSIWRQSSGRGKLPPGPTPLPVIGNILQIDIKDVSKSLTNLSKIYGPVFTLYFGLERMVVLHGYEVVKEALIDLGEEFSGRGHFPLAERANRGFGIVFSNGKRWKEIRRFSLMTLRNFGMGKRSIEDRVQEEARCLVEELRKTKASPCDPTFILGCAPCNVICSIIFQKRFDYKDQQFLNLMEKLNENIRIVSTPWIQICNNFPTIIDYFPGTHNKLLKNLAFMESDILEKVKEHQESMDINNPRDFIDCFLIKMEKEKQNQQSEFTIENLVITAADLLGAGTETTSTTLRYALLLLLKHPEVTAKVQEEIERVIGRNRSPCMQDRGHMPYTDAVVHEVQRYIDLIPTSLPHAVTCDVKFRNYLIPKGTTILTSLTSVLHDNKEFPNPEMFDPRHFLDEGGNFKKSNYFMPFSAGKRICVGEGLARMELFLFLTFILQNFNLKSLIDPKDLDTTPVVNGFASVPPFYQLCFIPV

Cytochrome P450 3A4 = Cytochrome P450 3A4 (Homo sapiens, UniProt P08684);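 also: CYP3A4 tested as one member of a cytochrome P450 panel screen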
Cytochrome P450 3A4, sequence (P08684 whole entry): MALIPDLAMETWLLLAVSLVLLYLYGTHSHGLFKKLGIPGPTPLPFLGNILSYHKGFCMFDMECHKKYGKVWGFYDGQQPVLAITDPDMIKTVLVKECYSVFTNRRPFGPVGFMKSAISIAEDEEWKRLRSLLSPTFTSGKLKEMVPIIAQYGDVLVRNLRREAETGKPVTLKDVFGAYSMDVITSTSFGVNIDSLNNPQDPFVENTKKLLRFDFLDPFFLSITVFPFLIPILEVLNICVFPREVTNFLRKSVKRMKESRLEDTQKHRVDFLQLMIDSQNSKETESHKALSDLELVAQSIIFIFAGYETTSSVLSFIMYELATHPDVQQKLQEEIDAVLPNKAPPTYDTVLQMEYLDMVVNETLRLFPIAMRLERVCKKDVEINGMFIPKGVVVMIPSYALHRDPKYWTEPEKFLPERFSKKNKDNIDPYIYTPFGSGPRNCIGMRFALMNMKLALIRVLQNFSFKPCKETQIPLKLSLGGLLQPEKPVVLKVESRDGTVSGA

[6] = test system: Streptococcus sp. 'group A'; assay: growth inhibition of control SK(-) GAS strain, dose response, counter-screen for streptokinase expression inhibitor project, luminescence, kanamycin, BacTiterGlo, confirmation (AID 1900); type: functional, organism-based
Streptococcus = assay: Group A Streptococcus viability loss, dose response, counter-screen for streptokinase expression inhibitor project, luminescence, BacTiterGlo (AID 1915); type: functional, organism-based;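 also: potency for reduction of bacterial viability or growth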
Streptokinase A = molecular target: T2, Streptokinase A (Streptococcus pyogenes serotype M1, UniProt P10520); assay: S. pyogenes streptokinase expression inhibitors, potency, dose response, plasminogen activation absorbance, OD405 (AID 1914); type: functional, Streptococcus pyogenes M1 GAS;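 also: secreted streptokinase activity via plasminogen activation per viability signal from cell pellet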
T2 sequence (P10520 whole entry): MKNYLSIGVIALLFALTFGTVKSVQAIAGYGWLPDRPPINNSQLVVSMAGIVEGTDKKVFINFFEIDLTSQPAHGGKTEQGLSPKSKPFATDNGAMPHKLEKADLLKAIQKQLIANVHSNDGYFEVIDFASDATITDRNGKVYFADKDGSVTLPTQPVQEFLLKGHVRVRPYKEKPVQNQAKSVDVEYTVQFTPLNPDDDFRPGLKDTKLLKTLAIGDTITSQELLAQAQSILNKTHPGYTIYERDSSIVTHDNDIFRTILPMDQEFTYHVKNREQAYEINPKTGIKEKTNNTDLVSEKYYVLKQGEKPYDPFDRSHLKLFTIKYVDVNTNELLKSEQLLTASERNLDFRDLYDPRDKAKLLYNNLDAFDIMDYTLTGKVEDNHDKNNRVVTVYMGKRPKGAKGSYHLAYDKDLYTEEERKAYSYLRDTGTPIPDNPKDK

Paired box protein Pax-8 = Paired box protein Pax-8 (Homo sapiens, UniProt Q06710); assay: inhibitors of PAX8-driven TPO luciferase reporter, dose response, RMG-I cells, cherry-pick (AID 687027); type: functional, cell-based;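 also: luciferase reporter driven by Pax8 target thyroperoxidase promoter measured by SteadyGlo luminescence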
Paired box protein Pax-8, sequence (Q06710 whole entry): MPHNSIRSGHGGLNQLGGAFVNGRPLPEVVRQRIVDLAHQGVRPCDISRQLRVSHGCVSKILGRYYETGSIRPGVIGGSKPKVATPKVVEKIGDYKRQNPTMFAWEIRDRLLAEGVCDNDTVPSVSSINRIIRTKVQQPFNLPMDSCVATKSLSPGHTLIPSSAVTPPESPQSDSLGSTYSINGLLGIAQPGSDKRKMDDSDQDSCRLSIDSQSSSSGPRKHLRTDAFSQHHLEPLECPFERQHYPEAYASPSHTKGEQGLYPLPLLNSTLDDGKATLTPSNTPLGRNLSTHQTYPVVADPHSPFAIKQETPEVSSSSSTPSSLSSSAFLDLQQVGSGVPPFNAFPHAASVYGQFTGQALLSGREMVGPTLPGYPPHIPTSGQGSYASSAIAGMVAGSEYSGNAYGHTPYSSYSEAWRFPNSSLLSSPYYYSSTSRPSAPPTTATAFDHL

[7] = molecular target: T3, Heat shock factor protein 1 (Mus musculus, UniProt P38532); assay: inhibition of MG132-induced HSE-luciferase signal, confirmation, cell-based, NIH3T3, luminescence, dose retest (AID 2382); type: functional;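 also: NIH3T3 fibroblasts with HSF1-driven luciferase reporter stressed by proteasome inhibitor MG132; luminescence from HSF1-driven luciferase expression after 8 hours of MG132 stress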
T3 sequence (P38532 whole entry): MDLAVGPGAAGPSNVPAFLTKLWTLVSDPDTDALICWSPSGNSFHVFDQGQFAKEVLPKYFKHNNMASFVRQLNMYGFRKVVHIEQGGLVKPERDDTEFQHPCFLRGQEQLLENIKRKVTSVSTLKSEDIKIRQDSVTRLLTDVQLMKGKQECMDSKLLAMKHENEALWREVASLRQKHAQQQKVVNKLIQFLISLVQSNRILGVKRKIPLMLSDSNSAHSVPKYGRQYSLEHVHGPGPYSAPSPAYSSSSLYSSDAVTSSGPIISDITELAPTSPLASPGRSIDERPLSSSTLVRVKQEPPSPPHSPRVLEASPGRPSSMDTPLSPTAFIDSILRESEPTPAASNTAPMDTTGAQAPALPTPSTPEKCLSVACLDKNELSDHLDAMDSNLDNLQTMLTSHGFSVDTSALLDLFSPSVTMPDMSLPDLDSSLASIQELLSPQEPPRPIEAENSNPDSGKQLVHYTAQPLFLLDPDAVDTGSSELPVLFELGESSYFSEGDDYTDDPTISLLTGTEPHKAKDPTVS

CCOC(=O)/C(C#N)=C1/C=CN(c2ccc(C)cc2)C=N1
EC50 [1]: > 120 µM (not active)
EC50 [2]: 14.9 µM (active)
EC50 (H4): 14.8 µM (active)

CCOc1ccc(-c2nc(S(=O)(=O)c3ccccc3)c(NCc3cccnc3)o2)cc1
EC50 [3]: > 120 µM (not active)
EC50 [4]: > 120 µM (not active)
EC50 [5]: > 120 µM (not active)

O=c1c2cc(-c3ccccc3)sc2ncn1-n1cccc1
EC50 [1]: 0.473 µM (active)
EC50 [2]: 0.674 µM (active)
EC50 (H4): 15 µM (active)

CCC(CC)C(=O)Nc1cccc(/C(C)=N\NC(=O)c2ccc(C)s2)c1
AC50 (Cytochrome P450 2C9): 0.355 µM (inconclusive)
AC50 (Cytochrome P450 1A2): 3.16 µM (inconclusive)

COC(=O)[C@@]1(Cc2ccc(OC)cc2)[C@H]2c3cc(C(=O)N(C)C)n(CCN4CNCC4=O)c3C[C@H]2CN1C(=O)c1ccccc1
AC50 (Cytochrome P450 2C19): 15.8 µM (inconclusive)
AC50 (Cytochrome P450 1A2): 20 µM (inconclusive)

Cc1ccc(C)c(NC(=O)c2cc3ccccn3n2)c1
EC50 [1]: 0.765 µM (active)
EC50 [2]: 0.163 µM (active)
EC50 (H4): 41.1 µM (active)

Nc1ccc(S(=O)(=O)c2ccc(NC(=O)c3cccnc3)cc2)cc1
AC50 (Cytochrome P450 2C9): 6.31 µM (inconclusive)
AC50 (Cytochrome P450 3A4): 3.16 µM (inconclusive)

CCN(CC)S(=O)(=O)c1cccc(-c2nnc(S)n2/N=C/c2ccc(OC)cc2)c1
EC50 [3]: 34.8 µM (active)
EC50 [4]: > 120 µM (not active)
EC50 [5]: 23.8 µM (active)

CCOC(=O)c1ncn2c1[C@H]1CCCN1C(=O)c1cc(OC)ccc1-2
AC50 (Cytochrome P450 1A2): 39.8 µM (inconclusive)

NS(=O)(=O)c1ccc(NC2(C(=O)O)CCCC2)cc1
AC50 (Cytochrome P450 1A2): 0.794 µM (inconclusive)

COc1cccc(Cn2c(=O)c(-c3cccc(C#N)c3)nc3cnc(Nc4ccccc4)nc32)c1
AC50 (Cytochrome P450 3A4): 0.794 µM (inconclusive)

Cc1ccccc1-c1cc(C(=O)Nc2nc3c(s2)CCCC3)c2ccccc2n1
AC50 (Cytochrome P450 1A2): 3.55 µM (inconclusive)

CCOCC(=O)Nc1c(C(=O)Nc2ccccc2OC)oc2ccccc12
AC50 (Cytochrome P450 3A4): 6.31 µM (inconclusive)

CCc1ccc(N2C(=O)/C(=C/c3cccs3)N(CC(=O)OC)C2=S)cc1
AC50 (Cytochrome P450 2C9): 12.6 µM (inconclusive)
AC50 (Cytochrome P450 3A4): 12.6 µM (inconclusive)
AC50 (Cytochrome P450 2C19): 3.98 µM (inconclusive)
AC50 (Cytochrome P450 1A2): 15.8 µM (inconclusive)

COc1ccc(-n2c(=O)c(-c3ccccc3)nc3cnc(N4CCOCC4)nc32)cc1
AC50 (Cytochrome P450 1A2): 15.8 µM (inconclusive)

NC[C@](O)(CS(=O)(=O)O)c1ccc(Cl)cc1
AC50 (Cytochrome P450 3A4): 1 µM (inconclusive)
AC50 (Cytochrome P450 1A2): 31.6 µM (inconclusive)

Cc1c(NC(=O)/C(C#N)=C/c2ccc(-c3ccccc3Cl)o2)c(=O)n(-c2ccccc2)n1C
EC50 [3]: > 120 µM (not active)
EC50 [4]: > 120 µM (not active)
EC50 [5]: 13.4 µM (active)

CCCN(CCC)[C@@H]1CCc2c(OC)cccc2[C@@H]1C
AC50 (Cytochrome P450 1A2): 31.6 µM (inconclusive)

CNS(=O)(=O)c1ccc(NC(=O)c2cnn3c(C(F)F)cc(-c4ccccc4)nc23)cc1
EC50 [6]: 85.3 µM (active)
EC50 [3]: 12.1 µM (active)
EC50 [4]: 31.8 µM (active)
EC50 (Streptococcus): > 150 µM (not active)
EC50 (Streptokinase A): > 150 µM (not active)
EC50 [5]: > 120 µM (not active)

c1ccc2c3c([nH]c2c1)[C@@H]1[C@H]2CC[C@H]([C@H]4CCCN[C@H]42)N1CC3
AC50 (Cytochrome P450 1A2): 15.8 µM (inconclusive)

Cc1cccc(-n2ccnc2SCC(=O)Nc2nccs2)c1
EC50 [1]: 6.34 µM (active)
EC50 [2]: 23.4 µM (active)
EC50 (H4): > 120 µM (not active)

CC1(C)CC(=O)C(CCCN2C(=O)c3ccccc3C2=O)C(=O)C1
AC50 (Cytochrome P450 2C19): 39.8 µM (inconclusive)
AC50 (Cytochrome P450 1A2): 28.2 µM (inconclusive)

O=C(c1ccc(C[S+]([O-])Cc2ccccc2Cl)o1)N1CCN(C2CCCCC2)CC1 (centres undefined)
EC50 [1]: > 120 µM (not active)
EC50 [2]: > 120 µM (not active)
EC50 (H4): > 120 µM (not active)

C[C@H](O)C#Cc1cnc2c(c1)C(=O)N([C@H](C)CO)C[C@H](C)[C@H](CN(C)Cc1ccc(-c3ccccc3)cc1)O2
AC50 (Paired box protein Pax-8): 5.05 µM (active)

Cc1cc(NC(=O)C2C3C(=O)N(Cc4ccc(Cl)cc4)C(C(=O)NC(C)(C)C)C34C=CC2(C)O4)no1 (centres undefined)
AC50 (Cytochrome P450 3A4): 25.1 µM (inconclusive)
EC50 [7]: > 195 µM (not active)

O=C(Nc1nnc(-c2ccccc2F)s1)C1CCCO1 (centres undefined)
EC50 [1]: 0.223 µM (active)
EC50 [2]: 0.89 µM (active)

COc1cc2c(cc1OC)CN(c1ccc3ccccc3n1)CC2
EC50 [1]: 17 µM (active)
EC50 [2]: 11.9 µM (active)
EC50 (H4): 15.9 µM (active)

C=CCn1c2ccccc2c2nnc(S)nc21
EC50 [3]: > 120 µM (not active)
EC50 [4]: > 120 µM (not active)
EC50 [5]: 17.8 µM (active)

COc1ccc(NS(=O)(=O)c2cccc(N3CC(=O)C(c4ccccc4)=C3N)c2)cc1
EC50 [3]: > 120 µM (not active)
EC50 [4]: > 120 µM (not active)
EC50 [5]: > 120 µM (not active)

Cc1ccc(NC(=O)c2nc[nH]c2C(=O)N[C@@H](C)c2ccccc2)cc1
EC50 [6]: 1.05 µM (active)
EC50 [3]: > 120 µM (not active)
EC50 [4]: > 120 µM (not active)
EC50 (Streptococcus): 16.9 µM (active)
EC50 (Streptokinase A): > 150 µM (not active)
EC50 [5]: 17.3 µM (active)

O=c1c(-c2ccc(Cl)cc2)nc2cnc(Nc3ccccc3)nc2n1C[C@H]1CCCO1
AC50 (Cytochrome P450 1A2): 12.6 µM (inconclusive)

Oc1ccc(CNCc2ccccc2)c2cccnc12
AC50 (Cytochrome P450 1A2): 5.01 µM (inconclusive)

CN1CCN(CCc2ccc(Cl)c(Cl)c2)CC1
AC50 (Cytochrome P450 1A2): 25.1 µM (inconclusive)

COCCn1c(=O)c(-c2ccc(F)c(F)c2)nc2cncnc21
AC50 (Cytochrome P450 3A4): 12.6 µM (inconclusive)

Cc1ccc(S(=O)(=O)N(C)C[C@H]2OCCCC[C@@H](C)Oc3ccc(NS(=O)(=O)c4ccc(F)cc4)cc3C(=O)N([C@@H](C)CO)C[C@H]2C)cc1
AC50 (Paired box protein Pax-8): 8.12 µM (active)

COC(=O)c1nn(-c2cccc(C(F)(F)F)c2)c(=O)cc1Sc1ccccn1
AC50 (Cytochrome P450 2C9): 3.98 µM (inconclusive)
AC50 (Cytochrome P450 3A4): 20 µM (inconclusive)
EC50 [7]: > 195 µM (not active)

O=c1c2c(n3cnnc3n1C1CCCCC1)-c1ccccc1CC21CCCCC1
EC50 [3]: > 120 µM (not active)
EC50 [4]: > 120 µM (not active)
EC50 [5]: > 120 µM (not active)

C/C(CCN1CCCc2nc(C)c(C)cc21)=N\O[C@@H](C)c1cc(-c2c(C)cc(C)cc2C)no1
AC50 (Cytochrome P450 3A4): 5.01 µM (inconclusive)
